Test results: patent US20250230149A1, “MGLUR5 MODULATING COMPOUNDS, COMPOSITIONS, AND METHODS OF USE” (Allyx Therapeutics, Inc., priority 2022, published 2025)
In brackets after ≈: the same amount, converted by molar mass. Entries after “also recorded” stand apart in the source; their conditions may differ.

What was measured:
[1] = Solubility in EtOAc/heptane mixtures by HPLC; format: physicochemical; conditions: organic solvent or mixture, thermodynamic from solid
Protocol: Solubility data were generated applying the following protocol: slurries of Compound 1 were prepared and allowed to equilibrate at 20° C. under stirring for about 18 hours. To determine the concentration in supernatant, about 0.1 mL of slurry was sampled with syringe, filtered, weighed, diluted with MeCN, and injected into an HPLC. […] Samples were cooled to 20° C., and solid residues were isolated by filtration on 20-μm PTFE filter, dried under vacuum at 40° C., and submitted to XRPD analysis. Compound 1 peak area for each sample was recorded, and solubility data were calculated using previously determined response factor (245 nm, 1460 mAU*sec/mg/mL, Table 7). The data were combined and visualized on chart with the solubility as function of the percentage of heptane by volume. […] Solubility smoothly decreases with the increase in heptane amount.

C57/BI6J mice = conditions: single 7.5 mg/kg dose; cited from earlier work
dKI mice [2] = test: Immunohistochemical staining of SV2A and PSD-95 in APPNLGF/MAPT (dKI) mouse model; format: in vivo; conditions: 3.75 mg/kg q12 oral, at least 28 days
Protocol: (§1) The objective of this study was to assess synaptic density of control and Amyloid Precursor Protein carrying NL-G-F mutations/Microtubule-associated protein tau (APP^NLGF/MAPT) (dKI—double knock-in) mice before and after treatment with Compound 1. Vehicle (95% PEG-400/5% Solutol) or Compound 1 at 7.5 mg/kg/day (3.75 mg/kg q12) was given to control and dKI mice for at least 28 days by oral administration.
Reduced synaptic density in dKI samples relative to controls was confirmed by immunohistochemical staining of pre- and post-synaptic markers (SV2A and PSD-95) in hippocampal and cortical sections.

C1q = C1q production, synaptic localization and synaptic engulfment; design: species or system mice; conditions: mouse, in vivo
Text: Compound 1 (e.g., Form A) prevented Alzheimer's triggered aberrant synaptic signaling while preserving physiological Glu activation. Studies have been conducted to show oral Compound 1 effectively occupied brain mGluR5 sites visualized by [^18F]FPEB PET at doses 250-fold below adverse effect levels in rodent and non-human primate. […] Production of the microglial mediator, C1q, was not altered by Compound 1, but Alzheimer-gene-dependent C1q localization to synapses and synaptic engulfment were prevented. Thus, selective modulation of mGluR5 reversed neuronal gene expression changes to protect synapses from damage by microglial mediators.

dKI mice [3] = test: SV2A PET imaging of synaptic density in APPNLGF/MAPT (dKI) mouse model; format: in vivo; conditions: 12 months of age, one-month treatment, 3.75 mg/kg q12 oral
Protocol: as §1
To further maximize translational relevance, in other studies mice were aged to the point that synapse loss was detectable using SV2A PET. At 12 months of age, synapse density, as measured by hippocampal/brainstem [^18F]SDM-8 SUVR-1, was reduced in dKI mice relative to wild-type.

[4] = molecular target: aryl hydrocarbon receptor (AhR) (Rattus norvegicus, UniProt P41738); test: AhR receptor activation, rat; format: in vitro ADME; conditions: at 30 μM
Text: The objective of this study was to determine the human and rat pregnane X receptor (PXR) and human and rat aryl hydrocarbon receptor (AhR) receptor activation potential of Compound 1 Form A. The activation of PXR is a marker for induction of CYP3A4/5 and […] and the activation of AhR is a marker for induction of CYP1A.

APP/PS1 mice = test: SV2A PET imaging of synaptic density in APP/PS1 mouse model; format: in vivo; conditions: 12 months of age, one-month treatment, 3.75 mg/kg q12 oral
Protocol: The objective of this study was to assess synaptic density of control and APP/PS1 mice before and after treatment with Compound 1, and to assess the reversibility of any observed effects following a drug washout period.
Vehicle (95% polyethylene glycol (PEG) 400/5% solutol) or Compound 1 at 7.5 mg/kg/day (3.75 mg/kg q12) was given to control and APP/PS1 mice for at least 28 days by oral administration. A subset of mice stopped treatment after four weeks, then underwent a four-week washout period.
To further maximize translational relevance, in other studies mice were aged to the point that synapse loss was detectable using SV2A PET. At 12 months of age, synapse density, as measured by hippocampal/brainstem [^18F]SDM-8 SUVR-1, is reduced in APP/PS1 mice relative to wild-type.

CYP2B6 = molecular target: T1, CYP2B6 (Homo sapiens, UniProt P20813); test: CYP450 reaction phenotyping in Supersomes, CYP2B6; format: in vitro ADME
T1 construct: purchased
Protocol: In Vitro CYP450 Reaction Phenotyping Study in Supersomes™ Over-Expressing Human CYP Enzymes
The CYPP450 enzymes involved in the Phase I metabolism of Compound 1 Form A were investigated in vitro. Compound 1 Form A was metabolized by CYP1A2, CYP2D6 and CYP3A4 and with T1/2 values of 64, 14, and 176 min, respectively, and CLint of 0.261, 0.984 and 0.0786 μL/min/pmol CYP, respectively. No evidence of Compound 1 metabolism by CYP2B6, CYP2C8, CYP2C9 and CYP2C19 was observed.

in vivo = test: in vivo
Protocol: Six cohorts of 6 participants each received a single oral dose of Compound 1 in the fasted state at the following dose levels: 10, 40, 70, 100, 150, and 200 mg and then were followed for 7 days; the starting dose of 10 mg was <10% of the 140 mg human equivalent dose (HED) of the rat NOAEL in the GLP 28-day rat study of 15 mg/kg.

Sequence of aryl hydrocarbon receptor (AhR) (P41738 10-853): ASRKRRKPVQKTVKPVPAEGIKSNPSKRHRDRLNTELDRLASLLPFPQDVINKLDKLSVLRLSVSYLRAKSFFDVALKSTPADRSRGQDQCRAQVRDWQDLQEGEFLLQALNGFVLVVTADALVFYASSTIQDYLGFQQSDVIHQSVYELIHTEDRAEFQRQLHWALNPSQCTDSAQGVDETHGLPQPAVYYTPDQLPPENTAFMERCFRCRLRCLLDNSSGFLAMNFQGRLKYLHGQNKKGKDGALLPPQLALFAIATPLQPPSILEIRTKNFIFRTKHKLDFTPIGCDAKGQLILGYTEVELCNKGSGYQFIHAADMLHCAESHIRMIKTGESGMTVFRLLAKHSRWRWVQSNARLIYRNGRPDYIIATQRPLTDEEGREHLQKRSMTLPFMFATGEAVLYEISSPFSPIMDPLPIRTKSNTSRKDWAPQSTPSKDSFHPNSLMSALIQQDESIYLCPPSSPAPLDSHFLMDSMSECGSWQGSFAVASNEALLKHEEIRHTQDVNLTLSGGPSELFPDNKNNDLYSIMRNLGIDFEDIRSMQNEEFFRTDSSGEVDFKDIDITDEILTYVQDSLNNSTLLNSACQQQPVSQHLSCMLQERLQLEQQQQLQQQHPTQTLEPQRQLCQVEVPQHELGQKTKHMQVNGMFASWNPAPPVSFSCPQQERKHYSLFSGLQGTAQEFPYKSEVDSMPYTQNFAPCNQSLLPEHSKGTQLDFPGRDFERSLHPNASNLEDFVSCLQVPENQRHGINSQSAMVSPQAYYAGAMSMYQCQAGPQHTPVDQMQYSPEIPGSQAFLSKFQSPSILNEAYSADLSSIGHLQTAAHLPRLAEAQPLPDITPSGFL
T1 sequence (P20813 whole entry): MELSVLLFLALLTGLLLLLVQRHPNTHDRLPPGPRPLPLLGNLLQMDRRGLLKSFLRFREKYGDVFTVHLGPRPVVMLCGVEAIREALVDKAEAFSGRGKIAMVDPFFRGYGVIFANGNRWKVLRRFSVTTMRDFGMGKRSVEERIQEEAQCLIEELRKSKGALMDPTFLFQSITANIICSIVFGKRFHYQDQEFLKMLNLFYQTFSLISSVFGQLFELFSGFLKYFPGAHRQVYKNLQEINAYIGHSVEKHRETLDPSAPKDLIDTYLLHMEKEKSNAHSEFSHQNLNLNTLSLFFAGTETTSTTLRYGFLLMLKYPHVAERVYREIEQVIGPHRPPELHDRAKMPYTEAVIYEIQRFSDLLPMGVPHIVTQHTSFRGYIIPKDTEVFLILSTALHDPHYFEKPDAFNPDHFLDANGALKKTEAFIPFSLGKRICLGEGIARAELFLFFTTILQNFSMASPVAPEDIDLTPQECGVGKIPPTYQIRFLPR

With `O=C1N[C@H](c2cncc(C#Cc3ccccc3)c2)[C@@H](c2ccccc2Cl)O1` [Compound 1, (4R,5R)-5-(2-chlorophenyl)-4-(5-(phenylethynyl)pyridin-3-yl)oxazolidin-2-one] the solubility ([1]; EtOAc/heptane 20:80 (% v/v), 20° C.) was 2 mg/mL (≈ 5.34 mM), the solubility ([1]; EtOAc/heptane 20:80 (% v/v), 45° C.) was 3 mg/mL (≈ 8 mM) and the solubility ([1]; EtOAc/heptane 32:68 (% v/v), 20° C.) was 6 mg/mL (≈ 16 mM). It also gave a solubility ([1]; EtOAc/heptane 32:68 (% v/v), 45° C.) of 10 mg/mL (≈ 26.7 mM), a solubility ([1]; EtOAc/heptane 40:60 (% v/v), 20° C.) of 11 mg/mL (≈ 29.3 mM) and a solubility ([1]; EtOAc/heptane 40:60 (% v/v), 45° C.) of 17 mg/mL (≈ 45.4 mM). It also gave a solubility ([1]; EtOAc/heptane 50:50 (% v/v), 20° C.) of 20 mg/mL (≈ 53.4 mM), a solubility ([1]; EtOAc/heptane 50:50 (% v/v), 45° C.) of 34 mg/mL (≈ 90.7 mM) and a solubility ([1]; EtOAc/heptane 60:40 (% v/v), 20° C.) of 33 mg/mL (≈ 88 mM). For the same compound, the solubility ([1]; EtOAc/heptane 60:40 (% v/v), 45° C.) was 61 mg/mL (≈ 163 mM), the solubility ([1]; EtOAc/heptane 70:30 (% v/v), 20° C.) was 49 mg/mL (≈ 131 mM) and the solubility ([1]; EtOAc/heptane 70:30 (% v/v), 45° C.) was 85 mg/mL (≈ 227 mM). For the same compound, the solubility ([1]; EtOAc/heptane 80:20 (% v/v), 20° C.) was 69 mg/mL (≈ 184 mM), the solubility ([1]; EtOAc/heptane 80:20 (% v/v), 45° C.) was 124 mg/mL (≈ 331 mM) and the solubility ([1]; EtOAc/heptane 90:10 (% v/v), 20° C.) was 95 mg/mL (≈ 253 mM). For the same compound, the solubility ([1]; EtOAc/heptane 90:10 (% v/v), 45° C.) was 177 mg/mL (≈ 472 mM), the solubility ([1]; EtOAc/heptane 100:0 (% v/v), 20° C.) was 115 mg/mL (≈ 307 mM) and the solubility ([1]; EtOAc/heptane 100:0 (% v/v), 45° C.) was 187 mg/mL (≈ 499 mM). For the same compound, the “prevention of PAM-induced seizures, shown previously” value (C57/BI6J mice) was “prevents seizures”, the “SV2A and PSD-95 staining in the cerebral cortex, relative to vehicle” value (dKI mice [2]) was “significant increases” and the “SV2A staining in hippocampus, relative to vehicle” value (dKI mice [2]) was “significant increases”. The “Alzheimer-gene-dependent C1q localization to synapses and synaptic engulfment” value (C1q) was “prevented”, the “production of the microglial mediator C1q” value (C1q) was “not altered” and the “synaptic density, SV2A PET (hippocampal/brainstem [18F]SDM-8 SUVR-1)” value (dKI mice [3]) was “fully recovered; also recorded: highly significant increase”. The “AhR activation, % of the positive control” value [4] was 0.946%, the “mean maximum fold activation of AhR” value [4] was 1.42 fold and the “synaptic density, SV2A PET (hippocampal/brainstem [18F]SDM-8 SUVR-1)” value (APP/PS1 mice) was “fully recovered; also recorded: highly significant increase”. For the same compound, the “metabolism by CYP2B6” value (CYP2B6) was “No evidence”, the “human equivalent dose (HED) of the rat NOAEL” value (in vivo) was 140 mg and the NOAEL at 28 days (in vivo; rat) was 15 mg/kg.
